Results published in patent publication US9006294B2, “Oral pharmaceutical formulation of pelubiprofen with improved dissolution rate and stability” (Daewon Pharm., Co., Ltd., priority 2008, dated 2015).

How the values were obtained:
[1] = Related compounds in pelubiprofen combined with single additives, stored two weeks at 60° C.; format: physicochemical; details: pelubiprofen 20 mg plus additive
Experimental: Increased amounts of related compounds were measured after oral pharmaceutical formulations with different mean particle sizes (27.4 μm, 45.6 μm) of pelubiprofen in combination with different amounts of various additives were stored for two weeks under the severe condition of 60° C.

[2] = Dissolution test of pelubiprofen tablets, Paddle Method of Korean Pharmacopoeia; format: physicochemical
Excerpt: In accordance with the present invention, mean particle size of pelubiprofen preferably ranges from 1 to 30 μm. For example, pelubiprofen particles are difficult to prepare when less than 1 μm in mean particle size, although their dissolution rate increases thanks to the increased surface area thereof. On the other hand, pelubiprofen particles exceeding 30 μm in size have a decreased dissolution rate.
Pelubiprofen tablets differing in the mean particle size of pelubiprofen and the kinds and content of additives were measured for dissolution rate as follows.
A dissolution test was performed on the pelubiprofen tablets prepared in Examples 1 to 20 and Comparative Examples 1 to 18.
The dissolution test was performed according to the procedure of Paddle Method described in Korean Pharmacopoeia. In this regard, one tablet was tested in 900 mL of a dissolution medium (pH 1.2) at 37±0.5° C., with a maintenance of paddle rotation speed at 50 rpm. After a 45-min test, the dissolution medium was taken and filtered through a 0.45 μm filter, followed by the UV analysis of the filtrate.

- Increase of Related Cpd. ([1]; MPS of pelubiprofen 27.4 μm): 9.5%
- Total Related Cpd. ([1]; MPS of pelubiprofen 27.4 μm): 0.461%
- Increase of Related Cpd. ([1]; MPS of pelubiprofen 45.6 μm): 2.6%
- Total Related Cpd. ([1]; MPS of pelubiprofen 45.6 μm): 0.432%
- dissolution rate ([2]; mean particle size of pelubiprofen 9.3 μm): 85.8%
- dissolution rate ([2]; mean particle size of pelubiprofen 19.1 μm): 75.3%
- dissolution rate ([2]; mean particle size of pelubiprofen 27.4 μm): 70.4%
- dissolution rate ([2]; mean particle size of pelubiprofen 45.6 μm): 41.4%
SMILES: CC(C(=O)O)c1ccc(/C=C2\CCCCC2=O)cc1 (centres unmarked) [pelubiprofen, 2-[4-(2-oxocyclohexylidenemethyl)phenyl]propionic acid]
